For series [1], the system named is hepatocytes from hGPR35a-HA-expressing mice. Nature of the series: Label-free cellular impedance assay in hepatocytes from hGPR35a-HA-expressing mice. The series is classed as cell-based, mouse. Particulars: lodoxamide 1 × 10^–7 M.
The next series addresses human GPR35a (Homo sapiens, UniProt Q9HC97). Description: β-arrestin-based interaction assay, agonist potency at human GPR35a. The series is classed as cell-based.
In the next series the test system is HepG2 cells. Nature of the series: Oil Red O staining of LXR (T0901317)-induced lipid accumulation in HepG2 cells. The series is classed as cell-based, human. Here is the method: Human hepatocellular carcinoma HepG2 cells were grown in Minimum Essential Medium (MEM) supplemented with 10% fetal bovine serum (FBS), 2 mM L-glutamine, 1× non-essential amino acid, 1 mM sodium pyruvate, and 1× penicillin/streptomycin. Materials for cell culture were all from Sigma-Aldrich (St. Louis, MO) or Thermo Fisher Scientific (Waltham, MA). Cells were incubated in a humidified CO2 incubator at 37 °C. […] Cells were seeded onto a 12-well plate (1 × 10^5 cells/well) for 24 h prior to drug treatment. […] Lipid accumulation was measured by Oil Red O staining.

The subject of series [2] is GPR35 knock-out clones of HepG2 cells. Nature of the series: Oil Red O lipid accumulation in GPR35 knock-out clones of HepG2 cells. Particulars: lodoxamide 1 × 10^–6 M or 1 × 10^–5 M. The series is classed as cell-based, human. The protocol:
Human hepatocellular carcinoma HepG2 cells were grown in Minimum Essential Medium (MEM) supplemented with 10% fetal bovine serum (FBS), 2 mM L-glutamine, 1× non-essential amino acid, 1 mM sodium pyruvate, and 1× penicillin/streptomycin. Materials for cell culture were all from Sigma-Aldrich (St. Louis, MO) or Thermo Fisher Scientific (Waltham, MA). Cells were incubated in a humidified CO2 incubator at 37 °C. Experiments were performed when cell confluence reached 80%. Cells were seeded onto a 12-well plate (1 × 10^5 cells/well) for 24 h prior to drug treatment. […] Expression of full-length mRNA from the GPR35 gene was eliminated using a dual synthetic gRNA/RNP approach[43] with one guide cutting the intron and one in the exon region to generate a nonfunctional GPR35 protein. The gRNAs were designed with the CRISPR Finder (Welcome Sanger Institute). […] Transfected cells were plated and analyzed for editing efficiency 24-48 h after electroporation. […] To further quantify and capture the genomic DNA deletion, PCR primers listed in Table S1 were designed to amplify the genomic DNA surrounding the target site. […] The amplified PCR products were subjected to paired-end sequencing using NextSeq500 from Illumina using paired-end chemistry with a 150-bp read length. […] The impedance was recorded using xCELLigence RTCA. […] Lipid accumulation was measured by Oil Red O staining.

Chain of human GPR35a (Q9HC97 whole entry): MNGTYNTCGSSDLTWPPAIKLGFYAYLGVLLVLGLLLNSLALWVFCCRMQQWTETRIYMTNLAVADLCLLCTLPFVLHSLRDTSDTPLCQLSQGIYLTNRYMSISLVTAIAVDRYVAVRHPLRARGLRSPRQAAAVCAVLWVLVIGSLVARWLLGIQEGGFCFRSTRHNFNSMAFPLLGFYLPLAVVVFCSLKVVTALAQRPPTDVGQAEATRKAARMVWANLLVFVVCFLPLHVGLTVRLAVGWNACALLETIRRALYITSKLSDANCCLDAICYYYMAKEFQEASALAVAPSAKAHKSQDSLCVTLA

Consider `N#Cc1cc(NC(=O)C(=O)O)c(Cl)c(NC(=O)C(=O)O)c1` [lodoxamide, 2-[2-chloro-5-cyano-3-(oxaloamino)anilino]-2-oxoacetic acid], for which the “cellular impedance response in hepatocytes from hGPR35a-HA-expressing mice” value in series [1] is “time-dependent increase in cellular impedance”. For the same compound, at human GPR35a (log ratio of potency at human GPR35a over mouse GPR35), the “ratio (log) (H/M)” value was 2.66 ± 0.05. In addition, the EC50 at human GPR35a (β-arrestin-based interaction assay, read-out: human GPR35a, pEC50 (converted)) is 4.17 nM; in the series on HepG2 cells (Homo sapiens, co-incubation with T0901317 4 × 10^–6 M, 48 h, Oil Red O, read-out: EC50 for reduction in the lipid accumulation induced by T0901317), 95 nM. The “effect on basal lipid accumulation without co-addition of T0901317” value in the series on HepG2 cells (1 × 10^–5 M) is on record as “no significant effect”. For the same compound, the “effect of T0901317 on lipid accumulation at maximally effective concentrations of lodoxamide” value in the series on HepG2 cells (T0901317 4 × 10^–6 M, 48 h) was “fully suppressed”. Also, in series [2], the “suppression of the effect of T0901317 on lipid accumulation in GPR35 knock-out clones” value was “unable to suppress the effect of T0901317”.

Values taken from PMC8669712, “G Protein-Coupled Receptor GPR35 Suppresses Lipid Accumulation in Hepatocytes” (ACS Pharmacology & Translational Science, 2021).
